Patent US20100222360A1, “Treatment of Malignant Peripheral Nerve Sheath Tumors” (priority 2008, published 2010)

Test system: MPNST cell line, YST-1
Assay: Proliferation of the MPNST cell line YST-1
Format: cell-based

O=C1c2ccccc2-c2n[nH]c3cccc1c23 [SP600125]
effect on the suppression of cell proliferation effected by Imatinib (SP600125 in combination with Imatinib, YST-1 cells): reinforces the suppression of cell proliferation | suppression of proliferation of the MPNST cell line YST-1 (single agent, concentration-dependent manner): suppresses the proliferation
